Legend:
Hsp90/Cdc37 = assay: FIMM screening in split Renilla luciferase assay with hypomorphic NRL-Hsp90 construct, 20 μM; format: biochemical; settings: for Average RLU (FIMM Screening-1): DMSO 50019
Method: In the second in silico screening of the FIMM database, we employed the four identified chemical scaffolds (Figure S2B) for the visual inspection of the FIMM compound library. […] All of the purchased compounds were validated in vitro at 20 μM using the split Renilla luciferase assay.
The Hsp90/Cdc37 split Renilla luciferase assay using the full length Hsp90 for the compound screening was described previously. […] After 48 h, the cells were trypsinized and washed with PBS. The harvested cells were lysed in 1 mL of the 1x lysis buffer provided in the Renilla Luciferase Reporter Assay System Kit from Promega (cat. E2820), and were incubated on ice for 10 min. The cell lysates were then cleared by centrifugation at 13,000× g for 1 min. […] After this, the screening/test compounds or DMSO—as indicated—were added to each well. In total, 5 µL NRL-Hsp90- or NRL-N-Hsp90-lysate was added to each well, one row at a time. Subsequently, the plate was incubated for 5 min at room temperature (RT). […] Just before the reading, 20 µL assay buffer containing 2× Renilla luciferase substrate (coelenterazine) was added. For the FIMM screening, sample wells were read on a PHERAstar plate reader (BMG LABTECH) at a gain level of 4000, after 10 s shaking, using a hypomorph of NRL-Hsp90. For the subsequent validations of the compounds, sample wells with the above-described assay constructs were read using a synergy H1 Hybrid Multi-Mode reader (BioTek) in the luminescence detection mode, as described previously in detail.

MDA-MB-231 microtumors = assay: Chick chorioallantoic membrane (CAM) microtumor assay; format: in vivo, chick embryo; settings: 5 days
Method: The fertilized eggs were incubated at 37 °C in a 55% to 60% humidified egg hatcher incubator (MG100, Fiem). After 8 days, 2 million MDA-MB-231 cells were resuspended in 1× PBS and Matrigel (BD Biosciences) at a ratio of 1:1, and were then deposited within sterilized 7 mm diameter plastic rings cut from a plastic pipette (cat. no. LW4111, Alpha Laboratories Limited) on a surface of chicken embryo CAM. The xenografted tumors were treated with 20 µL 0.1% DMSO vehicle control or the test compound diluted in 1× PBS once a day, starting from 24 h after cell seeding. The microtumors were harvested after 5 days of treatment. The microtumors were collected in pre-weighted 1.5 mL Eppendorf tubes containing 500 µL PBS, and the tumor mass was determined by the difference of the weights.

Hsp90α (N-terminal) = molecular target: T1, Hsp90α (N-terminal) (Homo sapiens, UniProt P07900); assay: Hsp90 N-terminal ATP-binding site competition assay (FITC-geldanamycin fluorescence polarization)
T1 construct: purchased BPS Bioscience 50298
Method: The reaction was initiated by adding 35 ng/μL purified recombinant Hsp90α, and was incubated at RT with slow shaking for 2 h. All of the reactions were performed in a black, low binding NUNC microtiter plate, included in the kit, and the total reaction volume was 50 μL. The enzyme control was measured without the test compound, and the enzyme background control was measured without the test compound or Hsp90α. […] All of the controls and the blank contained 10% DMSO, as did all of the samples of the test compounds. All of the samples were analyzed as duplicates. […] The blank value was subtracted from all of the other values, and the fluorescence polarization was determined as:(1) mP = ((III − I⊥)/(III+ I⊥)) × 1000 where III is the intensity of the parallel, and I┴ the intensity of the perpendicular polarized light.

HCC-44 cells = assay: 2D cell proliferation (alamarBlue); format: cell-based; settings: Homo sapiens, HCC44; HCC-44 (lung, G12C), 72 h
Method: (§1) Per well, 500–700 cells were seeded in 96-well flat bottom culture plates in 100 µL. After 24 h, the cells were treated with 0.1% DMSO vehicle control or test compounds diluted in a medium using a 1:2 dilution-series, starting at 100 µM. The plates were further incubated for 72 h. The cell viability was measured after the addition of 10% alamarBlue reagent per well (cat. no. DAL1100, Thermo Fisher Scientific). The fluorescence intensity (excitation 560 nm and emission 590 nm) was measured after 4 h by the use of a H1 Hybrid Multi-Mode reader.

HEK293 EBNA cells = assay: 2D cell proliferation (alamarBlue); format: cell-based; settings: Homo sapiens, 72 h
Method: as §1

MCF 10A cells = assay: 2D cell proliferation (alamarBlue); format: cell-based; settings: Homo sapiens, 72 h
Method: as §1

MIA PaCa-2 cells = assay: 2D cell proliferation (alamarBlue); format: cell-based; settings: Homo sapiens; MIA PaCa-2 (pancreas), 72 h
Method: as §1

SK-BR-3 cells = assay: 2D cell proliferation (alamarBlue); format: cell-based; settings: Homo sapiens; SK-BR-3 (breast, n.a.), 72 h
Method: as §1

Hsp90, Hsp70 = assay: Western blotting of Hsp90 and Hsp70 (heat shock response); format: cell-based; settings: Western blot, 24 h; four cancer cell lines; 17-AAG 2 μM
Method: The cells in the RIPA buffer were placed on ice for 20 min, and were then sonicated in ice cold water for 5 min. […] Equal amounts of protein were separated by 10% SDS-PAGE, and were then transferred onto a nitrocellulose membrane (cat. no. NBA 083C001EA, Protran) using a wet transfer system (Bio-Rad) or semidry Transferblot Turbo Transfer System (Bio-Rad). After the transfer, the membranes were blocked for 30 min in 5% skimmed milk dissolved in 1× TBST, and then incubated with 1:2000 primary antibodies in 5% BSA in TBST at 4 °C overnight.
The next day, the membranes were washed three times in TBST for 10 min, and then incubated with secondary antibodies (1:5000) diluted in 5% skimmed milk in TBST for 1 h at RT. […] All of the antigens and molecular weights in kDa are labelled next to the blots on the figures. Uncropped Western blot data are attached as Figure S6.

Row | SMILES | normalized RLU (FIMM Screening-1) (Hsp90/Cdc37; DMSO = 1.00) | normalized RLU (FIMM Screening-2, scaffold based) (Hsp90/Cdc37; DMSO = 1.00) | Average RLU (FIMM Screening-1) (Hsp90/Cdc37; mean of 3 wells) [RLU] | Average RLU (FIMM Screening-2, scaffold based) (Hsp90/Cdc37; mean of 3 wells, DMSO 51006) [RLU] | microtumor growth on CAM (MDA-MB-231 microtumors; MDA-MB-231, 10 μM) | competition with FITC-geldanamycin (ATP-pocket binding, polarization signal) (Hsp90α (N-terminal); 20 μM compound) | competition with FITC-geldanamycin (ATP-pocket binding, polarization signal) (Hsp90α (N-terminal); up to 50 μM (12.5, 25, 50 μM)) | IC50 (HCC-44 cells) [µM] | IC50 (HEK293 EBNA cells) [µM] | IC50 (MCF 10A cells) [µM] | IC50 (MIA PaCa-2 cells) [µM] | IC50 (SK-BR-3 cells) [µM] | microtumor growth on CAM (MDA-MB-231 microtumors; MDA-MB-231, 20 μM) | induction of Hsp90 or Hsp70 expression (heat shock response) (Hsp90, Hsp70)
1 | C/C1=C\[C@H](C)C[C@H](C)[C@H](Cc2cnco2)OC(=O)/C(C)=C/[C@H](C)C[C@H](C)[C@H](Cc2cnco2)OC1=O [conglobatin A, reference compound] | 0.51 | 0.49 | 25349 | 25048 | significantly reduced |  |  |  |  |  |  |  |  | 
2 | N=C(CSS(=O)(=O)O)NCC12CC3CC(CC(C3)C1)C2 [×6506, [({N-[(adamantan-1-yl)methyl]carbamimidoyl}methyl)sulfanyl]sulfonic acid] |  |  |  |  |  | None of these four compounds displaced | did not do so | 28 ± 4 | 47 | 64 | 25 ± 2 | 36 ± 4 | significantly reduced | not inducing
3 | CCOc1ccc(C(=O)c2ccc(O)c(O)c2O)cc1 [×1540, 2,3,4-TRIHYDROXY-4'-ETHOXYBENZOPHENONE] | 0.76 |  | 37962 |  |  | None of these four compounds displaced | did not do so | 49 ± 6 | 89 | 172 | 23 ± 2 | 36 ± 3 | significantly reduced | not inducing

From PMC7927014, “Novel Small Molecule Hsp90/Cdc37 Interface Inhibitors Indirectly Target K-Ras-Signaling” (Cancers, 2021)
